Laboratory results: ChEMBL document CHEMBL1201862, “PubChem BioAssay data set” (2004)
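Five compound concentrations were applied to cells in 96-well plates for 48 hours; endpoints were derived by simple linear interpolation of the resulting dose-response curve. GI50 is the concentration that inhibits growth by half.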 The source made the active and inactive calls. No stated cut-off is given here; in the data, active = GI50 up to about 1.1 µM and inactive = higher.

Tests used:
Experiment in all cases: inhibition of tumour cell growth, NCI panel, 48 h
DU-145 = test system: DU-145
EKVX = test system: EKVX
HCT-15 = test system: HCT-15
HL-60 = test system: HL-60
LOX IMVI = test system: LOX IMVI
MOLT-4 = test system: MOLT-4
Malme-3M = test system: Malme-3M
NCI-H23 = test system: NCI-H23
NCI-H460 = test system: NCI-H460
NCI/ADR-RES = test system: NCI/ADR-RES
SF-295 = test system: SF-295
SK-MEL-28 = test system: SK-MEL-28
SK-MEL-5 = test system: SK-MEL-5
SK-OV-3 = test system: SK-OV-3
SW-620 = test system: SW-620
TK-10 = test system: TK-10
UACC-257 = test system: UACC-257
UO-31 = test system: UO-31
HOP-62 = test system: HOP-62
HCC 2998 = test system: HCC 2998

Row | SMILES | GI50 (DU-145) | GI50 (EKVX) | GI50 (HCT-15) [µM] | GI50 (HL-60) | GI50 (LOX IMVI) | GI50 (MOLT-4) | GI50 (Malme-3M) | GI50 (NCI-H23) | GI50 (NCI-H460) | GI50 (NCI/ADR-RES) | GI50 (SF-295) | GI50 (SK-MEL-28) | GI50 (SK-MEL-5) | GI50 (SK-OV-3) | GI50 (SW-620) | GI50 (TK-10) | GI50 (UACC-257) | GI50 (UO-31) | GI50 (HOP-62) | GI50 (HCC 2998)
1 | CC(C)(C)OC(=O)C(C#N)C(=O)c1ccc(C(=O)O)[nH]1 (stereo unspecified) | 48.2 µM (inactive) | 29.2 µM (inactive) | 23.2 | 21.7 µM (inactive) | 27.7 µM (inactive) | 33.6 µM (inactive) | 35.2 µM (inactive) | 36.3 µM (inactive) | 29.7 µM (inactive) | 12.7 µM (inactive) | 33.5 µM (inactive) | 62.2 µM (inactive) | 31 µM (inactive) | 42 µM (inactive) | 34.9 µM (inactive) | 29.7 µM (inactive) | 30.2 µM (inactive) | 30.8 µM (inactive) | – | –
2 | O=C1Nc2ccc(Br)cc2/C1=N/NC(=S)Nc1ccc([N+](=O)[O-])cc1 | 11.9 µM (inactive) | – | 2.69 | 1.75 µM (inactive) | 8.81 µM (inactive) | 5.31 µM (inactive) | 5.98 µM (inactive) | 2.55 µM (inactive) | 5.47 µM (inactive) | 2.01 µM (inactive) | 6.08 µM (inactive) | 11.1 µM (inactive) | 7.74 µM (inactive) | 12.7 µM (inactive) | 6.81 µM (inactive) | 14.5 µM (inactive) | 14.4 µM (inactive) | – | 11.4 µM (inactive) | –
3 | O=[N+]([O-])c1ccc(C[S+]([O-])Cc2ccccc2)cc1 (stereo unspecified) | > 100 µM (inactive) | > 100 µM (inactive) | > 100 | > 100 µM (inactive) | > 100 µM (inactive) | > 100 µM (inactive) | > 100 µM (inactive) | > 100 µM (inactive) | > 100 µM (inactive) | > 100 µM (inactive) | > 100 µM (inactive) | > 100 µM (inactive) | > 100 µM (inactive) | > 100 µM (inactive) | > 100 µM (inactive) | > 100 µM (inactive) | > 100 µM (inactive) | > 100 µM (inactive) | > 100 µM (inactive) | –
4 | CC(=S)NC1C(Oc2ccc3c(C)cc(=O)oc3c2)OC(CO)C(O)C1O (stereo unspecified) | > 100 µM (inactive) | > 100 µM (inactive) | > 100 | > 100 µM (inactive) | > 100 µM (inactive) | > 100 µM (inactive) | – | – | > 100 µM (inactive) | > 100 µM (inactive) | > 100 µM (inactive) | > 100 µM (inactive) | > 100 µM (inactive) | > 100 µM (inactive) | > 100 µM (inactive) | > 100 µM (inactive) | > 100 µM (inactive) | > 100 µM (inactive) | > 100 µM (inactive) | –
5 | CCOC(=O)C(=[N+]=[N-])C(=O)CN1C(=O)c2ccccc2C1=O | > 100 µM (inactive) | > 100 µM (inactive) | > 100 | – | – | > 100 µM (inactive) | – | > 100 µM (inactive) | > 100 µM (inactive) | – | > 100 µM (inactive) | > 100 µM (inactive) | > 100 µM (inactive) | > 100 µM (inactive) | > 100 µM (inactive) | > 100 µM (inactive) | > 100 µM (inactive) | > 100 µM (inactive) | > 100 µM (inactive) | > 100 µM (inactive)
6 | Cc1cc(CCC(=O)NCCNc2c3ccccc3nc3ccccc23)cc(C)c1O[Si](C)(C)C(C)(C)C | 1.1 µM (active) | 1.6 µM (inactive) | 0.282 | 1.52 µM (inactive) | 0.148 µM (active) | 0.414 µM (active) | 2.06 µM (inactive) | 1.93 µM (inactive) | 0.762 µM (active) | 1.81 µM (inactive) | 0.807 µM (active) | 1.92 µM (inactive) | – | 1.61 µM (inactive) | 0.215 µM (active) | 1.63 µM (inactive) | 2.01 µM (inactive) | 1.83 µM (inactive) | 1.51 µM (inactive) | –
7 | CC(=O)Nc1nc(O)c2nc(C=O)cnc2n1 | > 100 µM (inactive) | > 100 µM (inactive) | > 100 | > 100 µM (inactive) | > 100 µM (inactive) | > 100 µM (inactive) | > 100 µM (inactive) | > 100 µM (inactive) | > 100 µM (inactive) | > 100 µM (inactive) | > 100 µM (inactive) | > 100 µM (inactive) | > 100 µM (inactive) | > 100 µM (inactive) | > 100 µM (inactive) | > 100 µM (inactive) | > 100 µM (inactive) | > 100 µM (inactive) | > 100 µM (inactive) | –
8 | COc1c2c(cc3c1-c1c(cc4c(c1OC)OCO4)C1OC3C(C)C1C)OCO2.COc1cc2c(c(OC)c1OC)-c1c(cc3c(c1OC)OCO3)C1OC2C(C)C1C (stereo unspecified) | 91.8 µM (inactive) | 87.3 µM (inactive) | 67.9 | 28.9 µM (inactive) | 68.4 µM (inactive) | 22.3 µM (inactive) | > 100 µM (inactive) | > 100 µM (inactive) | 55.3 µM (inactive) | – | 87.1 µM (inactive) | > 100 µM (inactive) | 78 µM (inactive) | > 100 µM (inactive) | > 100 µM (inactive) | > 100 µM (inactive) | 73.1 µM (inactive) | 94.8 µM (inactive) | > 100 µM (inactive) | 56.4 µM (inactive)
9 | Oc1cc(CN2COc3ccccc32)c(O)cc1CNC1CCCCC1 | 45.2 µM (inactive) | 17.3 µM (inactive) | 20.1 | – | 16.6 µM (inactive) | 8.79 µM (inactive) | 18.9 µM (inactive) | 22.3 µM (inactive) | 17.1 µM (inactive) | 37.2 µM (inactive) | > 100 µM (inactive) | 21.8 µM (inactive) | 19.3 µM (inactive) | 64.9 µM (inactive) | 35.6 µM (inactive) | 21.6 µM (inactive) | 15 µM (inactive) | 35.4 µM (inactive) | 71.1 µM (inactive) | –
10 | O=C(CCCN1CCC2(CC1)CC(=O)N(N1CCCCCC1)C2=O)c1ccccc1 | > 100 µM (inactive) | > 100 µM (inactive) | > 100 | > 100 µM (inactive) | > 100 µM (inactive) | > 100 µM (inactive) | > 100 µM (inactive) | > 100 µM (inactive) | – | > 100 µM (inactive) | > 100 µM (inactive) | > 100 µM (inactive) | > 100 µM (inactive) | > 100 µM (inactive) | – | > 100 µM (inactive) | > 100 µM (inactive) | > 100 µM (inactive) | > 100 µM (inactive) | –
11 | CC1=C2CC3=C(C)C(=O)O[C@H]3C[C@@H](C)[C@@H]2CC1 [AMERICANOLIDE D] | – | > 100 µM (inactive) | > 100 | 80.5 µM (inactive) | > 100 µM (inactive) | 51.9 µM (inactive) | > 100 µM (inactive) | > 100 µM (inactive) | > 100 µM (inactive) | > 100 µM (inactive) | > 100 µM (inactive) | > 100 µM (inactive) | 91.8 µM (inactive) | > 100 µM (inactive) | > 100 µM (inactive) | > 100 µM (inactive) | > 100 µM (inactive) | > 100 µM (inactive) | – | > 100 µM (inactive)
12 | CC(=O)OC1COC(Nn2c(=O)[nH]c3ccccc3c2=O)C(OC(C)=O)C1OC(C)=O (stereo unspecified) | > 100 µM (inactive) | 36.1 µM (inactive) | > 100 | > 100 µM (inactive) | > 100 µM (inactive) | > 100 µM (inactive) | – | > 100 µM (inactive) | > 100 µM (inactive) | 17.9 µM (inactive) | > 100 µM (inactive) | > 100 µM (inactive) | > 100 µM (inactive) | > 100 µM (inactive) | > 100 µM (inactive) | > 100 µM (inactive) | > 100 µM (inactive) | 81.1 µM (inactive) | > 100 µM (inactive) | –
13 | CCN(CC)C(=O)N1CN(c2ccccc2)C2(CCN(CCCSc3ccc(F)cc3)CC2)C1=O | 5.14 µM (inactive) | 3.93 µM (inactive) | 11 | 5.37 µM (inactive) | 2.84 µM (inactive) | 3.25 µM (inactive) | 15.9 µM (inactive) | 7.83 µM (inactive) | – | 21.2 µM (inactive) | 12.1 µM (inactive) | 18.4 µM (inactive) | 3.66 µM (inactive) | 19 µM (inactive) | 6.75 µM (inactive) | 10.3 µM (inactive) | 3.32 µM (inactive) | 7.19 µM (inactive) | – | –
14 | CO[C@]12C[C@H](CNC(=O)c3ccc[nH]3)O[C@H]1NC(=O)N2 | > 100 µM (inactive) | > 100 µM (inactive) | > 100 | > 100 µM (inactive) | > 100 µM (inactive) | – | > 100 µM (inactive) | > 100 µM (inactive) | > 100 µM (inactive) | > 100 µM (inactive) | > 100 µM (inactive) | – | > 100 µM (inactive) | > 100 µM (inactive) | > 100 µM (inactive) | > 100 µM (inactive) | > 100 µM (inactive) | > 100 µM (inactive) | > 100 µM (inactive) | –
15 | Cc1ccc2nc(-c3ccc(-n4c(C)nc(=O)c(-c5ccc(F)cc5)c4C)cc3)sc2c1 | 15.9 µM (inactive) | 13.5 µM (inactive) | 12.4 | 11.4 µM (inactive) | 22.7 µM (inactive) | 7 µM (inactive) | 14.5 µM (inactive) | 16.3 µM (inactive) | – | 15 µM (inactive) | 17.5 µM (inactive) | 20.8 µM (inactive) | 10.8 µM (inactive) | 15.1 µM (inactive) | 21.6 µM (inactive) | 16.1 µM (inactive) | 16.1 µM (inactive) | 15 µM (inactive) | 22 µM (inactive) | –
